Experimental data reported in the supplement of paper PMC12463676, “Small-molecule dissolution of stress granules by redox modulation benefits ALS models” (Nature Chemical Biology, 2025).

Experiments:
potassium arsenate = compound: O=[As]([O-])(O)O.[K+] [potassium arsenate]; assay: thermal stability z-score vs DMSO; higher = more thermally stabilized by treatment; conditions: HeLa; arsenate concentration 1 mM
Experimental: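 Cellular thermal proteome profiling in HeLa cells treated with 1 mM arsenate for 1 h (DMSO pretreatment), heated to ten temperatures (37-66.3 °C). Soluble protein was quantified by TMT mass spectrometry relative to DMSO controls; the thermal stability score was transformed to a z-score; mean of n = 3 experiments.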

lipoamide = compound: NC(=O)CCCCC1CCSS1 [lipoamide]; assay: as above; conditions: HeLa, lipoamide concentration 100 µM
Experimental: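 Cellular thermal proteome profiling in HeLa cells. Cells were treated with 100 µM lipoamide for 1 h, with or without 1 mM arsenate for a further 1 h, then heated to ten temperatures (37-66.3 °C), and soluble protein was quantified by TMT mass spectrometry relative to 0.1% DMSO controls. The thermal stability score (sum of log2 fold changes minus the abundance score) was transformed to a z-score; mean of n = 3 experiments.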

[1] = arsenate co-treatment: 1 mM arsenate 1 h
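Note: each temperature applied for 3 min, abundance score taken as mean log2 fold change at the two lowest temperatures, z-score obtained by mean subtraction and division by SD.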

Chain of UniProt Q9P206 (Q9P206 whole entry): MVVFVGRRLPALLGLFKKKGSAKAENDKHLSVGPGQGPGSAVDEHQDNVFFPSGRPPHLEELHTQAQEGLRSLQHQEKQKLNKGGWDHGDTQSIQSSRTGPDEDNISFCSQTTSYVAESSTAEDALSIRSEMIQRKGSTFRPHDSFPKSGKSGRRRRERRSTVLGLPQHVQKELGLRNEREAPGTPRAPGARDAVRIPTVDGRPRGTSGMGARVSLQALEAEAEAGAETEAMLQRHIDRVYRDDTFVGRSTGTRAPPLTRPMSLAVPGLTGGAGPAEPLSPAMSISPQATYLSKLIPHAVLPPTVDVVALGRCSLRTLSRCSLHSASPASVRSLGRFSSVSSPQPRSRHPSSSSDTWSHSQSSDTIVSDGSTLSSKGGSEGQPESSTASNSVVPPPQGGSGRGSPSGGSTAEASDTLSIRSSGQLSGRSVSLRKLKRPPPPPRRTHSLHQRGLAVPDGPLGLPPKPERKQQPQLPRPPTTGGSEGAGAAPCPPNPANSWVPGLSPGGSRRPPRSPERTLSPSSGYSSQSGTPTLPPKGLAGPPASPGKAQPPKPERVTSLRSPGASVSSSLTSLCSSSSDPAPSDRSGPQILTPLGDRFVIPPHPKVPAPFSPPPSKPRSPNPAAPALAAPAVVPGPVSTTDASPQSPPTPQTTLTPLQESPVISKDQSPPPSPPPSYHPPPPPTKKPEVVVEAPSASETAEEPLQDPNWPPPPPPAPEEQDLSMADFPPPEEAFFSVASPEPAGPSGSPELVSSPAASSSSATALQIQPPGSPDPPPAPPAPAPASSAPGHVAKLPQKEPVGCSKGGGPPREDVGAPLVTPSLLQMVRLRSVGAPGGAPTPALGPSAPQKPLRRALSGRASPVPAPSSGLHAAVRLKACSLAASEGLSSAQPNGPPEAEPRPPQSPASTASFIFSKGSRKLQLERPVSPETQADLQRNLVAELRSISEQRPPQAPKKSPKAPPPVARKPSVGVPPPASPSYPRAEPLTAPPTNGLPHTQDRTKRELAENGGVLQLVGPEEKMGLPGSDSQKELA
Chain of UniProt Q7L273 (Q7L273 whole entry): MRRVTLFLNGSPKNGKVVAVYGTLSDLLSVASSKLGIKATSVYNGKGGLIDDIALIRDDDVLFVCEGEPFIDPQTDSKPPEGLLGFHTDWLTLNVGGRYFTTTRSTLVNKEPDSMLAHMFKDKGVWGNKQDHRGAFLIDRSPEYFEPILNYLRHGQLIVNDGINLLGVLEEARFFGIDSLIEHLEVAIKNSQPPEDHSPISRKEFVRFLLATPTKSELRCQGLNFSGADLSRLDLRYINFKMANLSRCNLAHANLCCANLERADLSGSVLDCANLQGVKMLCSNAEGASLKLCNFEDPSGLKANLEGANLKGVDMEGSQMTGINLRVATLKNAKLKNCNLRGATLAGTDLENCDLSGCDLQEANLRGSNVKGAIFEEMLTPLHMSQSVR
Chain of UniProt Q9NZM3 (Q9NZM3 whole entry): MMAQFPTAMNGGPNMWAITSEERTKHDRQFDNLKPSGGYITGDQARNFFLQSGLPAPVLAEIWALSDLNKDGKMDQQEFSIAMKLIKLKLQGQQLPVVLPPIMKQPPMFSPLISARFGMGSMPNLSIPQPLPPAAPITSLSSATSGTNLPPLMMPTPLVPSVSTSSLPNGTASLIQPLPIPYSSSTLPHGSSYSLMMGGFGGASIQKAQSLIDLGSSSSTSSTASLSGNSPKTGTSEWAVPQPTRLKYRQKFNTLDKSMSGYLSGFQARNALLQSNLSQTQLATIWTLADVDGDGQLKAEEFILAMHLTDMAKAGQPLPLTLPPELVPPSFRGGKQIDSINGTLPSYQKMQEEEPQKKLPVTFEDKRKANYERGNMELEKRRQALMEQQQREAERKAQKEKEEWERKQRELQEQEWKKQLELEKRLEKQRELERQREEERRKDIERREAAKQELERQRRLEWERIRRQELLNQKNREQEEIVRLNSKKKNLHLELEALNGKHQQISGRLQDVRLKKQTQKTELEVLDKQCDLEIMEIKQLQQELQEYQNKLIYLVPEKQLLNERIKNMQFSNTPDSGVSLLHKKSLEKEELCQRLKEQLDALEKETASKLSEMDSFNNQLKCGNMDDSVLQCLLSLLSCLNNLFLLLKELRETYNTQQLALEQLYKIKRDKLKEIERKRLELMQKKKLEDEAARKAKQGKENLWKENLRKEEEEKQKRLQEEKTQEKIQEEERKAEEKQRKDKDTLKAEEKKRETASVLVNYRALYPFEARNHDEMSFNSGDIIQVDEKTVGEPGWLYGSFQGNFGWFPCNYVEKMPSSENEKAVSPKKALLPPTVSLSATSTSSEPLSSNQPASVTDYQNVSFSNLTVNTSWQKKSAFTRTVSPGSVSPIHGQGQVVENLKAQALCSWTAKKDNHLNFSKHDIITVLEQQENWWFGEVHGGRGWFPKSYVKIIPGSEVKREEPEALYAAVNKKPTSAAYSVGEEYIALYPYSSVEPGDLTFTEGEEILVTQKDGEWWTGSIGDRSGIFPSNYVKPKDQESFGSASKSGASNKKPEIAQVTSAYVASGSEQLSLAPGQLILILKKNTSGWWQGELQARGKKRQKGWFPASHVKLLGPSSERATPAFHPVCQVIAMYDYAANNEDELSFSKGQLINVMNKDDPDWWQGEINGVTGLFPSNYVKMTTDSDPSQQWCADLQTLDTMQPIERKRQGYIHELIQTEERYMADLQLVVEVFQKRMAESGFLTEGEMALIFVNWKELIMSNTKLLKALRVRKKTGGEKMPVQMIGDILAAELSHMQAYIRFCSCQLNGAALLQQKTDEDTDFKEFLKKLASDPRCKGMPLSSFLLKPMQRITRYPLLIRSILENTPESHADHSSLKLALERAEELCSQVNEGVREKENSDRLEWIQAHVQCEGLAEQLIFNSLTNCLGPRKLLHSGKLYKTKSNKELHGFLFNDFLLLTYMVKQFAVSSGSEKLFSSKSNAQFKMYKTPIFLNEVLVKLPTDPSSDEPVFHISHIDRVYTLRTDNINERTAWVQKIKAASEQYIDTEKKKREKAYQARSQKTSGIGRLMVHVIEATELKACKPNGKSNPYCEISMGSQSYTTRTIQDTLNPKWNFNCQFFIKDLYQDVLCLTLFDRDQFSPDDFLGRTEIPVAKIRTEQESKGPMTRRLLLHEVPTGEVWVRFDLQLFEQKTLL
Chain of UniProt Q7Z4H8 (Q7Z4H8 whole entry): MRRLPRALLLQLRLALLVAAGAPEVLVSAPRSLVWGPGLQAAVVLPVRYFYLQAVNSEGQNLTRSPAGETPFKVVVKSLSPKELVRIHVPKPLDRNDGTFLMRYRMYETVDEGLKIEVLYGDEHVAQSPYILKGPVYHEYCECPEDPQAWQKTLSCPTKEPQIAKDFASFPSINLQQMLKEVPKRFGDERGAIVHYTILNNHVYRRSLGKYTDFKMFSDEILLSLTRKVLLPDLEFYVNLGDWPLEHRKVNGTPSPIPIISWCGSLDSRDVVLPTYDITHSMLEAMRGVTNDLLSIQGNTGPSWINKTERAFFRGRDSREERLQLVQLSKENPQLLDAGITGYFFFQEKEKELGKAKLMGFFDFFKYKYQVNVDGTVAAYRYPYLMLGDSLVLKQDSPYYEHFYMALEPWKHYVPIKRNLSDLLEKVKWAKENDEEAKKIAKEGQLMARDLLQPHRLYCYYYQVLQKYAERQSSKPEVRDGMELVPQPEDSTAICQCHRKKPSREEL
Chain of UniProt Q8IY47 (Q8IY47 whole entry): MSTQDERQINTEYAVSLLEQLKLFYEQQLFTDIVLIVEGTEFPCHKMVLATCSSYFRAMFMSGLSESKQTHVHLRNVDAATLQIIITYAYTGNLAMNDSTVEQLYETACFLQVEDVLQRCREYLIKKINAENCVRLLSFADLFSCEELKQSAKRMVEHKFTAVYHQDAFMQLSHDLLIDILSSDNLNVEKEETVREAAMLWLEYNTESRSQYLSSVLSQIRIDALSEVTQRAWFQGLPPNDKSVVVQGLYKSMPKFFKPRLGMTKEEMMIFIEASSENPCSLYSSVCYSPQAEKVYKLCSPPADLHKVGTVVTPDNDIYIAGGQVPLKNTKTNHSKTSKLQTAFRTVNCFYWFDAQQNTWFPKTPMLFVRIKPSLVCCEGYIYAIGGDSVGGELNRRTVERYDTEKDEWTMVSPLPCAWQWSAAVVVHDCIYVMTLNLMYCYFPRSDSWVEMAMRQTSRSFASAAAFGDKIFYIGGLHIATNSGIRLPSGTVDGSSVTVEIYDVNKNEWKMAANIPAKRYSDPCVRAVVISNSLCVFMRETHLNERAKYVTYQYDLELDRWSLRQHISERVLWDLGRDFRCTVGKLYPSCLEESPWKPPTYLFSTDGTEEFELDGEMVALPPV
Chain of UniProt O76095 (O76095 whole entry): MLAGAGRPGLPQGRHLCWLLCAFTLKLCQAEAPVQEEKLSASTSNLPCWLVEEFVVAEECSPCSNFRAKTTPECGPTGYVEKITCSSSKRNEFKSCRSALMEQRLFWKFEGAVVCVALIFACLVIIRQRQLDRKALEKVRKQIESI
Chain of UniProt Q15004 (Q15004 whole entry): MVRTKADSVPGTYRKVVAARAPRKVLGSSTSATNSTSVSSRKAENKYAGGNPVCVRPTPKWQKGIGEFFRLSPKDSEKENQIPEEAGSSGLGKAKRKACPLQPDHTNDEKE
Chain of UniProt P17275 (P17275 whole entry): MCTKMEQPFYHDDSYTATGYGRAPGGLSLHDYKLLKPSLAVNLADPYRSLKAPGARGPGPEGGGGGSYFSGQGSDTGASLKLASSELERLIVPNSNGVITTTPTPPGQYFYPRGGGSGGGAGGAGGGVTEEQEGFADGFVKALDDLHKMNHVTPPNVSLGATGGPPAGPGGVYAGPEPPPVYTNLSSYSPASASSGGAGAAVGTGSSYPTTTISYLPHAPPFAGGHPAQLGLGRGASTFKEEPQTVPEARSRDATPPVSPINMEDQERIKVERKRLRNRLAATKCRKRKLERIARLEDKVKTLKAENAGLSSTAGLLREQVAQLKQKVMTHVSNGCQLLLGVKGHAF
Chain of UniProt Q96AT1 (Q96AT1 whole entry): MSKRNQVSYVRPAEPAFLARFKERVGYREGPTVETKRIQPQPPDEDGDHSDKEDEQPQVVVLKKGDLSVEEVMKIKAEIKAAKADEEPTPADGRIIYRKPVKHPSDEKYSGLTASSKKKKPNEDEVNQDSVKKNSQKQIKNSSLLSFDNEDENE

Target	thermal stability z-score (potassium arsenate)	thermal stability z-score (lipoamide; [1])	thermal stability z-score (lipoamide; arsenate co-treatment: none)
ITPRIP (UniProt Q8IWB1)	-0.289	-0.976	-0.936
ITPRIPL2 (UniProt Q3MIP1)	-0.0231	-0.176	-0.34
ITSN1 (UniProt Q15811)	0.365	-0.734	-0.15
ITSN2 (UniProt Q9NZM3)	-0.725	-0.803	-1.23
IVD (UniProt P26440)	0.902	0.0798	-0.0801
IVNS1ABP (UniProt Q9Y6Y0)	-0.145	0.601	0.743
IWS1 (UniProt Q96ST2)	0.949	-0.094	0.636
JADE3 (UniProt Q92613)	-0.474	-0.12	0.143
JAK1 (UniProt P23458)	0.123	-0.359	0.296
JMJD1C (UniProt Q15652)	-0.398	0.559	-0.396
JMJD4 (UniProt Q9H9V9)	0.0203	0.073	0.027
JMJD6 (UniProt Q6NYC1)	0.606	-0.363	0.15
JMY (UniProt Q8N9B5)	-0.323	-0.0736	-0.168
JPH1 (UniProt Q9HDC5)	-0.105	0.0376	0.0934
JTB (UniProt O76095)	0.688	0.634	0.0713
JUNB (UniProt P17275)	-1.55	0.208	0.791
JUP (UniProt P14923)	1.07	2.23	2.78
KANK1 (UniProt Q14678)	0.739	0.282	0.616
KANK2 (UniProt Q63ZY3)	-0.109	-0.0369	0.0732
KARS (UniProt Q15046)	1.5	-0.646	-0.663
KAT7 (UniProt O95251)	-0.144	0.116	-0.0536
KAT8 (UniProt Q9H7Z6)	-0.509	0.773	-0.409
KATNA1 (UniProt O75449)	-0.539	-0.664	0.155
KATNAL1 (UniProt Q9BW62)	-0.0764	0.798	-0.886

Target	thermal stability z-score (potassium arsenate)	thermal stability z-score (lipoamide; [1])	thermal stability z-score (lipoamide; arsenate co-treatment: none)
KATNB1 (UniProt Q9BVA0)	-0.452	0.145	0.401
KATNBL1 (UniProt Q9H079)	0.427	0.226	0.62
KBTBD2 (UniProt Q8IY47)	-0.0698	-0.0161	-0.0919
KBTBD4 (UniProt Q9NVX7)	0.259	0.389	-0.408
KBTBD6 (UniProt Q86V97)	-1.11	-0.502	0.182
KCMF1 (UniProt Q9P0J7)	0.636	-0.251	-0.483
KCNAB2 (UniProt Q13303)	0.237	0.221	0.281
KCNK1 (UniProt O00180)	-1.18	-1.31	0.686
KCTD1 (UniProt Q719H9)	-1.07	1.16	0.0871
KCTD3 (UniProt Q9Y597)	-0.15	0.366	0.263
KCTD5 (UniProt Q9NXV2)	-1.43	-1.92	-1.4
KCTD9 (UniProt Q7L273)	-0.315	0.34	0.375
KCTD10 (UniProt Q9H3F6)	1.06	0.997	0.63
KCTD12 (UniProt Q96CX2)	1.37	0.867	0.7
KCTD15 (UniProt Q96SI1)	-0.89	-0.377	-0.174
KCTD20 (UniProt Q7Z5Y7)	-0.0752	-0.132	-0.0693
KDELC1 (UniProt Q6UW63)	0.422	-2.9	-2.19
KDELC2 (UniProt Q7Z4H8)	0.334	-4.05	-2.72
KDM1A (UniProt O60341)	-1.3	1.9	2.21
KDM3A (UniProt Q9Y4C1)	-0.0481	0.00835	-0.0932
KDM3B (UniProt Q7LBC6)	0.0976	0.258	-0.0129
KDM4A (UniProt O75164)	-0.178	-0.16	-0.11
KDM5C (UniProt P41229)	-0.2	0.0486	-0.0414
KDSR (UniProt Q06136)	0.275	0.0293	0.264

Target	thermal stability z-score (potassium arsenate)	thermal stability z-score (lipoamide; [1])	thermal stability z-score (lipoamide; arsenate co-treatment: none)
KEAP1 (UniProt Q14145)	4.65	2.32	2.11
KHDRBS1 (UniProt Q07666)	-1.16	-0.091	0.104
KHSRP (UniProt Q92945)	0.486	0.21	0.161
KIAA0101 (UniProt Q15004)	0.49	0.253	0.245
KIAA0196 (UniProt Q12768)	0.0921	-0.101	0.0446
KIAA0319L (UniProt Q8IZA0)	-0.349	0.936	0.43
KIAA0368|ECM29	0.537	-0.212	0.501
KIAA0391 (UniProt O15091)	-0.0848	-0.0274	0.14
KIAA0586 (UniProt Q9BVV6)	-0.133	0.234	0.264
KIAA0907 (UniProt Q7Z7F0)	-0.94	-0.462	-1.09
KIAA0930 (UniProt Q6ICG6)	0.706	0.193	0.227
KIAA1033 (UniProt Q2M389)	-0.0284	-0.344	-0.193
KIAA1143 (UniProt Q96AT1)	-0.385	-0.286	0.26
KIAA1217 (UniProt Q5T5P2)	0.188	-0.00757	-0.0174
KIAA1429 (UniProt Q69YN4)	-0.0736	-0.266	-0.035
KIAA1468 (UniProt Q9P260)	-0.0466	0.284	0.0862
KIAA1522 (UniProt Q9P206)	0.286	-0.388	-0.0277
KIAA1524 (UniProt Q8TCG1)	0.662	-0.00458	-0.0673
KIAA2013 (UniProt Q8IYS2)	-1.04	1.03	1.5
KIDINS220 (UniProt Q9ULH0)	0.0983	-0.105	0.516
KIF1B (UniProt O60333)	-0.321	-0.488	-0.322
KIF1BP (UniProt Q96EK5)	0.587	0.371	-0.0427
KIF1C (UniProt O43896)	-0.086	-0.00389	0.0165
